Assays:
[1] = biological target: T1, hT1R1/hT1R3 umami receptor (Homo sapiens, UniProt Q7RTX0+Q7RTX1); assay: Umami taste enhancement activity assay (EC50 ratio vs. MSG); assay type: cell-based
T1 construct: expressed in transfected cells; host or cells: HEK293 derivative stably expressing Gα15, clone I-17, expression induced with mifepristone
T1 sequence (Q7RTX1 21-841): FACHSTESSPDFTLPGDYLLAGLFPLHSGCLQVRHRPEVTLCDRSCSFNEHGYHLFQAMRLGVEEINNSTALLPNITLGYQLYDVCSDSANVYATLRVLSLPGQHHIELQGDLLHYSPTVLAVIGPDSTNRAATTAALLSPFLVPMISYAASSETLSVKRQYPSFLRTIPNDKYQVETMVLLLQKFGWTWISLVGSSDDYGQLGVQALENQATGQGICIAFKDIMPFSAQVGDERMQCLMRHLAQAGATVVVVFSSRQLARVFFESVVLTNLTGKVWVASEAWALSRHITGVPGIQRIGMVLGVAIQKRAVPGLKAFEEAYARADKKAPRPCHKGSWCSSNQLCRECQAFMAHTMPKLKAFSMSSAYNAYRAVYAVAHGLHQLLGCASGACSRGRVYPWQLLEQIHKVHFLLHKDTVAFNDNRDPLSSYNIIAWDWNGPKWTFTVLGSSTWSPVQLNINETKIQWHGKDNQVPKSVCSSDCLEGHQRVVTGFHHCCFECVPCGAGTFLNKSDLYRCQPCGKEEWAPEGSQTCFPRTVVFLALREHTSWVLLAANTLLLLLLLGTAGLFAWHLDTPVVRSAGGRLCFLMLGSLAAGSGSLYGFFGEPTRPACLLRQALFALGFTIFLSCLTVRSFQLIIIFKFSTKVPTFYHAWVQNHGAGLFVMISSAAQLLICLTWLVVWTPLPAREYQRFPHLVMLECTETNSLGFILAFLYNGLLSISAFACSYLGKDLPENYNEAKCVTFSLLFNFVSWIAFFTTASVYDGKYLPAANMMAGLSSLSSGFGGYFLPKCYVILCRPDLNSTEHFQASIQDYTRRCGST
T1 sequence (Q7RTX0 21-852): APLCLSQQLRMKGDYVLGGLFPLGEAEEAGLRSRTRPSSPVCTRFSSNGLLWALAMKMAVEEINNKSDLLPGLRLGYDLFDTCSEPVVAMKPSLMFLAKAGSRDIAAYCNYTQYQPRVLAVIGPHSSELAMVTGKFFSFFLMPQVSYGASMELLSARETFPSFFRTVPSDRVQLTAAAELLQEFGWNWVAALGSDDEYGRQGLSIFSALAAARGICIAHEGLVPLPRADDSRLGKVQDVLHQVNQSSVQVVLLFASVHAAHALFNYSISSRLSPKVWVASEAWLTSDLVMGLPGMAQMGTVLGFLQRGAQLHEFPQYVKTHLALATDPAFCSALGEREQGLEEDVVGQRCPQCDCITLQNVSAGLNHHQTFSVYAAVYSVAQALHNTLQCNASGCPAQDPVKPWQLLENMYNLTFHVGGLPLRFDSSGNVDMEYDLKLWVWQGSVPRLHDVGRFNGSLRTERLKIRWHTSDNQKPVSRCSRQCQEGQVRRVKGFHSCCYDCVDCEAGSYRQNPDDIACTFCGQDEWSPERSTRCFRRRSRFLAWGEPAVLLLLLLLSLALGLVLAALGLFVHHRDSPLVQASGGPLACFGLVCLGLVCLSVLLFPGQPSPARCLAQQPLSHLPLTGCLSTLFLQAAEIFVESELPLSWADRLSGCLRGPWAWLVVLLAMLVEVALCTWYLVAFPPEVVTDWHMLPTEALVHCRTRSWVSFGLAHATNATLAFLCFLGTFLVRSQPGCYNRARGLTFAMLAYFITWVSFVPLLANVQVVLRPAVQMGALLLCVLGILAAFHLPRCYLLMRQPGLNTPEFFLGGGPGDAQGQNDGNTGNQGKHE
Protocol: A series of measurements of the dose response is run in solutions comprising MSG alone, then a second dose response is run with MSG in combination with predetermined amounts of a candidate compound of Formula (I) at the same time.
Typical compound concentrations tested were 30 μM, 10 μM, 3 μM, 1 μM, 0.3 μM, 0.1 μM and 0.03 μM. The relative efficacy of compounds of Formula (I) at enhancing the receptor was determined by calculating the magnitude of a shift in the EC50 for monosodium glutamate. Enhancement was defined as a ratio (EC50R) corresponding to the EC50 of monosodium glutamate, determined in the absence of the test compound, divided by the EC50 of monosodium glutamate, determined in the presence of the test compound.
Stated alternatively, “EC50 ratio” as compared to MSG is calculated based on the following definitions: EC50 Ratio vs. MSG=EC50 (MSG)/EC50(MSG+[Compound]) • wherein “[compound]” refers to the concentration of the compound of Formula (I) used to elicit (or enhance or potentiate) the MSG dose response.

[2] = system: savory taste, human panelists; assay: Umami/savory flavor experiments using human panelists (trained panel, difference from reference); assay type: in vivo; details: 12 mM MSG + cpd vs reference 12 mM MSG + 100 μM IMP
Protocol: General Panelist Selection: Basic screening of sensory taste testers: Potential panelists were tested for their abilities to rank and rate intensities of solutions representing the five basic tastes. Panelists ranked and rated intensity of five different concentrations of each of the five following compounds: sucrose (sweet), sodium chloride (salty), citric acid (sour), caffeine (bitter), and monosodium glutamate (savory). In order to be selected for participation in testing, panelists needed to correctly rank and rate samples for intensity, with a reasonable number of errors
Preliminary Taste Tests: The panelists selected in the above procedure were deemed qualified for performing Preliminary Taste Testing procedures. The preliminary taste tests are used to evaluate new compounds for intensity of basic tastes and off-tastes. A small group of panelists (n=5) taste approximately 5 concentrations of the compound (range typically between 1-100 μM, in half-log cycles, e.g., 1, 3, 10, 30, and 100 μM) in water and in a solution of 12 mM MSG to evaluate enhancement. Panelists rate the five basic tastes (sweet, salty, sour, bitter, and savory) as well as off-tastes (such as chemical, metallic, sulfur) on a labeled magnitude scale. Samples are served in 10 mL portions at room temperature. The purpose of the test is to determine the highest concentration at which there is no objectionable off-taste, and determine if obvious savory taste or enhancement of savory taste exists at any of the concentrations tested.
Trained Panelist Selection: A trained expert panel was used to further evaluate compounds that had been tested with the preliminary taste test.
Panelists for the trained panel were selected from the larger group of qualifying taste panelists. Panelists were further trained on savory taste by ranking and rating experiments using MSG and IMP combinations. Panelists completed a series of ranking, rating, and difference from reference tests with savory solutions. In ranking and rating experiments, panelists evaluated easy MSG concentrations (0, 6, 18, 36 mM) and more difficult MSG concentrations (3, 6, 12, 18 mM MSG) in water.
Compound testing with Trained Panel: Compounds tested by the trained panel were evaluated in difference from reference experiments. […] Test samples were solutions with varying amounts of MSG, IMP, and the compound.
Compounds were tested against the reference in samples with and without 12 mM MSG. All samples were presented in 10 ml volumes at room temperature. Two sessions were completed for each compound tested to evaluate panel reproducibility.

[3] = system: sweet taste, human panelists; assay: Sweet flavor and sweet flavor enhancement measurement using human panelists; assay type: in vivo
Protocol: Overview: Various concentrations of the experimental compound (normally aqueous solutions containing 1, 3, 10, and 30 uM concentrations of the experimental compound; and optionally 50 uM and/or 100 uM concentrations) are individually tasted by trained human subjects and rated for intensity of several taste attributes. The experimental compound may also be tasted when dissolved in a “key tastant” solution.
Procedure: An appropriate quantity of the experimental compound is dissolved in water typically also containing 0.1% ethanol, which is utilized to aid initial dispersion of the compound in the aqeuous stock solution. When appropriate, the experimental compound may also be dissolved in aqueous solutions of a “key tastant” (for example, 4% sucrose, 6% sucrose, 6% fructose/glucose, or 7% fructose/glucose, at pH 7.1 or 2.8).
Five human Subjects are used for preliminary taste tests. […] Subjects refrain from eating or drinking (except water) for at least 1 hour prior to the test. Subjects eat a cracker and rinse with water four times to clean the mouth before taste tests.
The aqueous solutions are dispensed in 10 ml volumes into 1 oz. sample cups and served to the Subjects at room temperature. Samples of the experimental compound dissolved in an appropriate key tastant (e.g., 4% sucrose, 6% fructose, or 6% fructose/glucose, typically at pH 7.1) at various concentrations of the experimental compound may also be served to the Subjects. Subjects also receive a reference sample of the key tastant (e.g., sucrose, fructose, or fructose/glucose, typically at pH 7.1) at different concentrations for comparison.
Subjects taste the solutions, starting with the lowest concentration, and rate intensity of the following attributes on the Labeled Magnitude Scale (LMS) for sweetness, saltiness, sourness, bitterness, savory (umami), and other (off-taste). Subjects rinse three times with water between tastings. If a particular concentration elicits an undesirable characteristic or off-taste, subsequent tastings of higher concentrations are eliminated. After a break, Subjects taste a solution of the key tastant (e.g., 4% sucrose, 6% fructose, or 6% fructose/glucose, typically at pH 7.1) without the experimental compound. Then solutions of the key tastant plus experimental compound are tasted in increasing order of concentration. The key tastant solution can be retasted for comparison with key tastant+experimental compound solutions if necessary. Discussion among panelists is permitted.
Subjects rate the difference in intensity of the test sample compared to the reference sample for the key attribute on a scale of −5 (much less sweet than the reference) to +5 (much more sweet than the reference). A score of 0 indicates the test sample is equally as sweet as the reference. […]

## CCCC(CCC)NC(=O)c1ccc2c(c1)OCO2 [Example 1, N-(heptan-4-yl)benzo[d][1,3]dioxole-5-carboxamide]
[1]; compound present at 0.03 μM
  EC50 ratio (enhanced the effectiveness of monosodium glutamate): 6.92
[2]
  Taste Data: concentration of cpd with 12 mM MSG that is as strong as 12 mM MSG + 100 μM IMP: 12 mM MSG + 3 μM cpd as strong as

## COC(=O)[C@@H](CC(C)C)NC(=O)c1ccc2c(c1)OCO2 [Example 6, (R)-methyl 2-(benzo[d][1,3]dioxole-6-carboxamido)-4-methylpentanoate]
[1]; compound present at 0.1 μM
  EC50 ratio (enhanced the effectiveness of monosodium glutamate): 4.9
[2]
  Taste Data: concentration of cpd with 12 mM MSG that is as strong as 12 mM MSG + 100 μM IMP: 12 mM MSG + 10 μM cpd as strong as

## COC[C@@H](CC(C)C)NC(=O)c1ccc(C)c(C)c1 [Example 71, (R)—N-(1-methoxy-4-methylpentan-2-yl)-3,4-dimethylbenzamide]
[2]
  Taste Data: concentration of cpd with 12 mM MSG that is as strong as 12 mM MSG + 100 μM IMP: 12 mM MSG + 3 μM cpd as strong as

## COC(=O)[C@@H](CC(C)C)NC(=O)c1cc(C)c(C)o1 [Example 98, (R)-methyl-2-(2,3-dimethylfuran-5-carboxamido)-4-methylpentanoate]
[2]
  Taste Data: concentration of cpd with 12 mM MSG that is as strong as 12 mM MSG + 100 μM IMP: 12 mM MSG + 10 μM cpd as strong as

## COC[C@@H](CC(C)C)NC(=O)c1ccc(OC)c(C)c1 [Example 104, 4-Methoxy-N-(1-methoxymethyl-3-methyl-butyl)-3-methyl-benzamide]
[2]
  Taste Data: concentration of cpd with 12 mM MSG that is as strong as 12 mM MSG + 100 μM IMP: 12 mM MSG + 3 μM cpd as strong as

## COc1ccc(CNC(=O)C(=O)NCCc2ccccn2)c(OC)c1 [Example 123, N-(2,4-Dimethoxy-benzyl)-N′-(2-pyridin-2-yl-ethyl)-oxalamide]
[1]; compound present at 0.3 μM
  EC50 ratio (enhanced the effectiveness of monosodium glutamate): 6.51
[2]
  Taste Data: concentration of cpd with 12 mM MSG that is as strong as 12 mM MSG + 100 μM IMP: 12 mM MSG + 1 μM cpd as strong as

## Cc1c(F)c(F)c(C(=O)NC2CCCCC2C)c(F)c1F (stereo not drawn) [Example 162, 2,3,5,6-tetrafluoro-4-methyl-N-(2-methylcyclohexyl)benzamide]
[3]; 10 uM compound + 6% fructose/glucose, pH 7.1
  Perceived Equivalent Sweet Solution: ≥ 8% fructose/glucose
[3]; 10 uM compound + 7% fructose/glucose, pH 2.8
  Perceived Equivalent Sweet Solution: ≥ 9% fructose/glucose

## Cc1cccc(C)c1C(=O)NC1CCCCC1C (stereo not drawn) [Example 168, 2,6-dimethyl-N-(2-methylcyclohexyl)benzamide]
[3]; 30 uM compound + 6% fructose/glucose, pH 7.1
  Perceived Equivalent Sweet Solution: Equal to 8% fructose/ % fructose/glucose

## O=C(Nc1ccc2c(c1)OCO2)N1Cc2ccccc2C1 [Example 174, N-(3,4-methylenedioxyphenyl)isoindoline-2-carboxamide]
[3]; 50 uM compound + 4% sucrose, pH not measured or controlled
  Perceived Equivalent Sweet Solution: 6% sucrose

## CCOc1ccc(/C=C/C(=O)NC(C)CC)cc1 (stereo not drawn) [Example D13, (E)-N-sec-butyl-3-(4-ethoxyphenyl)acrylamide]
[1]; Table D, compound @ 0.3 uM
  Ec50 ratio (vs. MSG): 2.7

## CC1CCCCC1NC(=O)c1ccc(Cl)c(Cl)c1 (stereo not drawn) [Example E54, 3,4-dichloro-N-(2-methylcyclohexyl)benzamide]
[1]; Table E, compound concentration not given
  Umami EC50 ratio: 10.66

From patent US8124121B2, “Flavors, flavor modifiers, tastants, taste enhancers, umami or sweet tastants, and/or enhancers and use thereof” (Senomyx, Inc., priority 2003, dated 2012)
